The results in this text go back to ChEMBL document CHEMBL6127018, “Molecular design and evaluation of aza-polycyclic carbamoyl pyridones as HIV-1 integrase strand transfer inhibitors” (Bioorg Med Chem Lett, 2024).

The nature of series [1]: Cmax in cynomolgus monkey at 5 mg/kg, po or 1 mg/kg, iv. It counts as ADME, organism-based, Macaca fascicularis. The settings on record: in vivo.
Series [2] is described as follows: Free fraction in rat serum at 5 mg/kg, po or 1 mg/kg, iv. Type of series: ADME, organism-based.
Series [3] is described as follows: Oral bioavailability in cynomolgus monkey at 5 mg/kg. Conditions: in vivo. Type of series: ADME, organism-based, Macaca fascicularis.
The nature of series [4]: Oral bioavailability in rat at 5 mg/kg. It counts as ADME, organism-based. Conditions: in vivo.
Series [5] can be described thus: Cmax in rat at 5 mg/kg, po or 1 mg/kg, iv. It counts as ADME, organism-based. The settings on record: in vivo.
Series [6] can be described thus: Half-life in cynomolgus monkey at 1 mg/kg, iv. It counts as ADME, organism-based, Macaca fascicularis. The settings on record: in vivo.
Series [7] is described as follows: Half-life in rat at 1 mg/kg, iv. Type of series: ADME, organism-based. The settings on record: in vivo.
Series [8] can be described thus: Free fraction in cynomolgus monkey serum at 5 mg/kg, po or 1 mg/kg, iv. Type of series: ADME, organism-based, Macaca fascicularis.

The structures appear in SMILES notation.

A word on the Cmax: it is the maximum level reached in the sampled fluid or tissue. By fraction unbound is commonly meant free concentration divided by total concentration. As usually defined, the bioavailability is the share of a dose that reaches the circulation, judged against a reference dose that is usually intravenous. By half-life is commonly meant how long it takes for the measured level to halve. Consider `COCCN1CN(C)n2cc(C(=O)NCc3ccc(F)cc3F)c(=O)c([O-])c2C1=O.[Na+]`, for which the Cmax worked out at 1700 ng/mL in series [1] and 18000 ng/mL in series [5]. Besides, the fraction unbound is 0.0011 in series [2] and 0.0072 in series [8]. The bioavailability came out at 31% in series [3] and 46% in series [4]. Also, the values for the half-life in series [6] and in series [7] were 4.8 h and 14.3 h, respectively.
On to `COCCN1C(=O)c2c([O-])c(=O)c(C(=O)NCc3ccc(F)cc3F)cn2CN1C.[Na+]`, for which the Cmax in series [1] was 385 ng/mL; in series [5], 9330 ng/mL. For the same molecule, the results for the fraction unbound in series [2] and in series [8] were 0.0014 and 0.0118, respectively. Also, the bioavailability came to 6.1% in series [3] and 21% in series [4]. In addition, the half-life was 3.1 h in series [6] and 21.9 h in series [7].
Consider `O=C(NCc1ccc(F)cc1F)c1cn2c(c([O-])c1=O)C(=O)N1CCCN1C2.[Na+]`, for which the figures for the Cmax in series [1] and in series [5] were 345 ng/mL and 6390 ng/mL, respectively. For the same molecule, the fraction unbound was found to be 0.0002 in series [2] and 0.0052 in series [8]. Also, the bioavailability in series [3] was determined as 6.4%; in series [4], 13%. Further, the figures for the half-life in series [6] and in series [7] were 3.7 h and 27.5 h, respectively.
In the case of `C[C@@H]1CCO[C@H]2Cn3cc(C(=O)NCc4ccc(F)cc4F)c(=O)c([O-])c3C(=O)N12.[Na+]` [DOLUTEGRAVIR SODIUM], the Cmax in series [1] turned out to be 817 ng/mL; in series [5], 10700 ng/mL. For the same molecule, the fraction unbound in series [2] came out at 0.0008; in series [8] it was 0.0058. For the same molecule, the bioavailability in series [4] came out at 33%. The half-life is 6 h in series [6] and 6.2 h in series [7].
